According to patent US20260374766A1, “METHODS FOR TREATING CANCER” (Antares Therapeutics, Inc., priority 2022, published 2026):
Read-outs that look alike come from different tables or passages of the source.

Tests used:
[1] = biological target: T1, p53 Y220C mutant protein (amino acid residues 94-293) (Homo sapiens, UniProt P04637, Y220C); assay: Thermal Shift Assay (TSA), dTM; type: binding; conditions: for ΔTm at 100 µM: 100 uM compound; for ΔTm at 10 µM: 10 uM compound
T1 construct: p53 Y220C mutant protein (amino acid residues 94-293)
Method in brief: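 Sypro Orange melt (30→50 °C, 0.03 °C/s) with TM taken from a Boltzmann two-state fit. Protein (residues 94-293) at 5 μM was pre-incubated 3 h at 20 °C with compound at 10 μM or 100 μM in pH 7.4 HEPES/NaCl buffer containing 0.01% Pluronic F-127 and 1% DMSO.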

H1299 p53 R273H = assay: Cell Proliferation Assay (CellTiter-Glo, CTG), H1299 p53 R273H (NClH1299-inducible p53 R273H); type: cell-based; conditions: Homo sapiens, NCI-H1299, 120 h, CellTiter-Glo, 5 days
Method in brief: (§1)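 NClH1299 lines stably transduced with Tet-inducible p53 Y220C or R273H, plus NUGC3, were treated with compound for 5 days at 250-500 cells/well. IC50 derived from CellTiter-Glo luminescent signal after 10 min room-temperature incubation.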

[2] = biological target: T1, p53 Y220C mutant protein (amino acid residues 94-293); assay: Surface Plasmon Resonance (SPR) assay, Kd_kinetic; type: binding; conditions: SPR, p53 Y220C, read-out: SPR P53 Y220C KD kinetic
Method in brief: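 Biacore 8K SPR; 16 or 20 °C; Tris 50 mM pH 7.5, NaCl 100 mM, DTT 1 mM, Brij35 0.01%, Tween-20 0.05%, DMSO 1%. Kd_kinetic by 1:1 fit.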

NUGC3 p53 Y220C = assay: Cell Proliferation Assay (CellTiter-Glo, CTG), NUGC3 p53 Y220C; type: cell-based; conditions: Homo sapiens, NUGC-3, 120 h, CellTiter-Glo, 5 days
Method in brief: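 Tet-One inducible p53 Y220C or R273H constructs were stably introduced into NCI-H1299 by lentiviral transduction; NUGC3 was used as is. Cells (250-500 per well) were exposed to compound for 5 days, then CellTiter-Glo was added for 10 min at room temperature and IC50 was calculated from luminescence.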

H1299 p53 Y220C = assay: Cell Proliferation Assay (CellTiter-Glo, CTG), H1299 p53 Y220C (NClH1299-inducible p53 Y220C); type: cell-based; conditions: Homo sapiens, NCI-H1299, 120 h, CellTiter-Glo, 5 days
Method in brief: as §1

p53 Y220C = p53 Y220C (Homo sapiens, UniProt P04637, Y220C); assay: Luciferase Reporter Assay (Luc), p53 response element, NClH1299 cells with inducible p53 Y220C; type: cell-based; conditions: luciferase reporter, NClH1299 inducible p53 Y220C, 6 hour; for AC50: read-out: Luc P53 Y220C AC50
Method in brief: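 Cells were seeded at 5,000 per well and induced with 0.5 ug/mL doxycycline for 24 hours, then exposed to compound for 6 hours. One-Glo reagent was added, plates shaken 5 minutes at room temperature, and luminescence read immediately.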

[3] = thermal shift, read-out: TSA P53 Y220C dTM (100 uM)
[4] = 10 uM tool compound as positive control
[5] = p53 Y220C, read-out: TSA P53 Y220C dTM
[6] = NClH1299-inducible p53 R273H cells
[7] = NClH1299-inducible p53 Y220C cells
[8] = thermal shift, read-out: TSA P53 Y220C dTM (10 uM)

ΔTm at 100 µM [1, 3] | IC50 (H1299 p53 R273H; H1299 p53 R273H) | Kd ([2]; kinetic KD) | IC50 (H1299 p53 Y220C; H1299 p53 Y220C) | Emax (p53 Y220C; [4]) | AC50 (p53 Y220C) | ΔTm at 10 µM [1, 5] | IC50 (H1299 p53 R273H; [6]) | Kd [2] | IC50 (H1299 p53 Y220C; [7]) | AC50 (p53 Y220C; AC50) | Emax (p53 Y220C; Emax) | ΔTm at 10 µM [1, 8] | ΔTm at 100 µM [1, 5] | Compound | IC50 (NUGC3 p53 Y220C; NUGC3 p53 Y220C) | IC50 (NUGC3 p53 Y220C; NUGC3 cells)
 |  |  |  |  |  | ≥ 10 °C | ≥ 10 µM | < 0.01 µM | < 0.75 µM | < 0.75 µM | > 90% |  |  | COc1ccc(C(=O)NC[C@@H](C)O)cc1NCC#Cc1cc2c(N[C@@H]3CCN(C)C[C@@H]3F)nccn2c1SC(F)(F)F [Example 359] |  | < 0.75 µM
 |  |  |  |  |  | ≥ 10 °C | ≥ 10 µM | < 0.01 µM | < 0.75 µM | < 0.75 µM | > 90% |  |  | CNC(=O)c1ccc(C(=O)NC)c(NCC#Cc2cc3c(N[C@@H]4CCN(C)C[C@@H]4F)nccn3c2SC(F)(F)F)c1 [Example 348] |  | < 0.75 µM
 |  |  |  |  |  | ≥ 10 °C | 8 to 10 µM | < 0.01 µM | < 0.75 µM | < 0.75 µM | 80 to 90% |  |  | CNC(=O)c1ccc(OC)c(NCC#Cc2cc3c(N[C@@H]4CCN(C)C[C@@H]4F)cccn3c2SC(F)(F)F)n1 [Example 345] |  | < 0.75 µM
 | 5 to 8 µM | < 0.01 µM | < 0.75 µM | > 90% | < 0.75 µM |  |  |  |  |  |  | ≥ 10 °C |  | CNC(=O)c1ccc(NCC#Cc2cn3c(N[C@@H]4CCN(C)C[C@@H]4F)cccc3c2SC(F)(F)F)c(OC)c1 [Example 139, 4-{[3-(5-{[(3S,4R)-3-fluoro-1-methylpiperidin-4-yl]amino}-1-[(trifluoromethyl)sulfanyl]indolizin-2-yl)prop-2-yn-1-yl]amino}-3-methoxy-N-methylbenzamide] | < 0.75 µM | 
 |  |  |  |  |  | ≥ 10 °C | ≥ 10 µM | < 0.01 µM | < 0.75 µM | < 0.75 µM | > 90% |  |  | CNC(=O)c1ccc(OC)c(NCC#Cc2cc3c(N[C@@H]4CCN(C5COC5)C[C@@H]4F)nccn3c2SC(F)(F)F)c1 [Example 351] |  | < 0.75 µM
≥ 10 °C | 8 to 10 µM | < 0.01 µM | < 0.75 µM | 80 to 90% | < 0.75 µM |  |  |  |  |  |  | ≥ 10 °C |  | CCNC(=O)c1ccc(OC)c(NCC#Cc2nc3c(N[C@@H]4CCN(C)C[C@@H]4F)cccn3c2SC(F)(F)F)c1 [Example 108, N-ethyl-3-{[3-(8-{[(3S,4R)-3-fluoro-1-methylpiperidin-4-yl]amino}-3-[(trifluoromethyl)sulfanyl]imidazo[1,2-a]pyridin-2-yl)prop-2-yn-1-yl]amino}-4-methoxybenzamide] | < 0.75 µM | 
 |  |  |  |  |  | ≥ 10 °C | ≥ 10 µM | < 0.01 µM | < 0.75 µM | < 0.75 µM | > 90% |  |  | CNC(=O)c1ccc(OC)c(NCC#Cc2cc3c(N[C@@H]4CCN(CC#N)C[C@@H]4F)nccn3c2SC(F)(F)F)c1 [Example 353] |  | < 0.75 µM
 |  |  |  |  |  | ≥ 10 °C | 8 to 10 µM | < 0.01 µM | < 0.75 µM | < 0.75 µM | > 90% |  | ≥ 10 °C | CNC(=O)c1cnc(OC)c(NCC#Cc2cc3c(N[C@@H]4CCN(C)C[C@@H]4F)nccn3c2SC(F)(F)F)c1 [Example 255] |  | < 0.75 µM

Continued, molecule first:

Compound | ΔTm at 100 µM [1, 3] | IC50 (H1299 p53 R273H; H1299 p53 R273H) | Kd ([2]; kinetic KD) | IC50 (H1299 p53 Y220C; H1299 p53 Y220C) | Emax (p53 Y220C; [4]) | AC50 (p53 Y220C) | ΔTm at 10 µM [1, 5] | IC50 (H1299 p53 R273H; [6]) | Kd [2] | IC50 (H1299 p53 Y220C; [7]) | AC50 (p53 Y220C; AC50) | Emax (p53 Y220C; Emax) | ΔTm at 10 µM [1, 8] | ΔTm at 100 µM [1, 5] | IC50 (NUGC3 p53 Y220C; NUGC3 p53 Y220C) | IC50 (NUGC3 p53 Y220C; NUGC3 cells)
CNC(=O)c1ccc(NCC#Cc2nc3c(N[C@@H]4CCN(C)CC4(F)F)cccn3c2CC(F)(F)F)c(OC)c1 (single isomer, unassigned) [Example 37] | 5 to 10 °C | ≥ 10 µM | > 1 µM | > 3 µM | < 70% | > 3 µM |  |  |  |  |  |  |  |  | > 3 µM | 
COC(=O)N1CCC(Nc2cccn3c(CC(F)(F)F)c(C#CCNc4ccc(S(C)(=O)=O)cc4OC)nc23)CC1 [Example 116, methyl 4-[(2-{3-[(4-methanesulfonyl-2-methoxyphenyl)amino]prop-1-yn-1-yl}-3-(2,2,2-trifluoroethyl)imidazo[1,2-a]pyridin-8-yl)amino]piperidine-1-carboxylate] | 5 to 10 °C | ≥ 10 µM | 0.1 to 1 µM | > 3 µM | < 70% | > 3 µM |  |  |  |  |  |  |  |  | > 3 µM | 
CNC(=O)c1ccc(OC)c(NCC#Cc2nn3c(N[C@H]4C[C@@H]5CC[C@H]([C@H]4F)N5C)cccc3c2SC(F)(F)F)c1 [Example 288] |  |  |  |  |  |  | ≥ 10 °C | < 5 µM | < 0.01 µM | < 0.75 µM | < 0.75 µM | 80 to 90% |  |  |  | < 0.75 µM
CNC(=O)c1ccc(NCC#Cc2nc3c(N[C@H]4CCC(=O)N(C)C4)cccn3c2SC(F)(F)F)c(OC)c1 [Example 187] | ≥ 10 °C | 5 to 8 µM | < 0.01 µM | < 0.75 µM | 80 to 90% | < 0.75 µM |  |  |  |  |  |  | ≥ 10 °C |  | < 0.75 µM | 
CNC(=O)c1ccc(NCC#Cc2nc3c(N[C@H]4Cc5cncn5C4)cccn3c2SC(F)(F)F)c(OC)c1 [Example 184] | ≥ 10 °C | 5 to 8 µM | < 0.01 µM | 1.5 to 3 µM | 70 to 80% | 1.5 to 3 µM |  |  |  |  |  |  | 5 to 10 °C |  | 0.75 to 1.5 µM | 
CNC(=O)c1ccc(NCC#Cc2nc3c(N[C@@H]4CCN(C)C[C@@H]4F)cccn3c2SC(F)F)c(OC)c1 [Example 106, 4-[(3-{3-[(difluoromethyl)sulfanyl]-8-{[(3S,4R)-3-fluoro-1-methylpiperidin-4-yl]amino}imidazo[1,2-a]pyridin-2-yl}prop-2-yn-1-yl)amino]-3-methoxy-N-methylbenzamide] | ≥ 10 °C | ≥ 10 µM | < 0.01 µM | < 0.75 µM | 70 to 80% | < 0.75 µM |  |  |  |  |  |  | 5 to 10 °C |  | < 0.75 µM | 
COc1cc(S(=O)(=O)C(C)C)ccc1NCC#Cc1nc2c(N[C@@H]3CCN(C)C[C@@H]3F)cccn2c1SC(F)(F)F [Example 78, (3S,4R)-3-fluoro-N-[2-(3-{[2-methoxy-4-(propane-2-sulfonyl)phenyl]amino}prop-1-yn-1-yl)-3-[(trifluoromethyl)sulfanyl]imidazo[1,2-a]pyridin-8-yl]-1-methylpiperidin-4-amine] | ≥ 10 °C | ≥ 10 µM | < 0.01 µM | < 0.75 µM | 80 to 90% | < 0.75 µM |  |  |  |  |  |  |  |  | < 0.75 µM | 
